This is an account of results in patent US6140311A, “Therapy by intrathecal administration of antitumor agent FUDR” (priority 1997, dated 2000).

SMILES strings stand for the structures.

Series [1] concerns meningeal dissemination of malignant tumours. Briefly: Clinical results of intrathecal chemotherapy with FUDR via Ommaya reservoir.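 Also: 13 patients with meningeal spread from various primary tumours, treatment length adjusted to disease symptoms.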
For another series, the system named is 203 glioma cells. Briefly: In vivo antitumor effect of intrathecal FUDR in mouse meningeal carcinomatosis model. The following applies: daily for 5 consecutive days, control group all dead. On the set-up: species or system C57/BL6 mice. The method, then: Six-week-old C57/BL6 mice divided into groups of 22 or 23 were used to prepare models of meningeal carcinomatosis by directly puncturing the cisterna magna with a 26-gauge needle under anesthesia with ethyl ether and injecting transplantable 203 glioma cells (5×10^5 cells/0.05 ml). The mice were given a specified dose of FUDR by intrathecal injection (0, 25, 50, 100 or 250 μg/0.05 ml/head) daily for 5 consecutive days following the day of transplant.
Description: The drug was given at a dose of 1 to 10 μg/body a day, three times a week. The period of administration was varied from 3 to 8 weeks in accordance with the symptoms of the disease.

The nature of series [2]: Toxicity of intrathecal FUDR in normal mice (body weight, symptoms, brain histology). It is filed as in vivo, C57/BL6 mice. The following applies: for body weight variation: days 0, 2, 4, 6. The protocol:
Normal C57/BL6 mice divided into groups of 20 were given FUDR by intrathecal injection at a specified dose (0, 10, 25, 50 or 100 μg/0.05ml/head) on the day of start of the experiment, 2 days, 4 days and 6 days after the start. Two months after the completion of administration of the drug, the mice were all sacrificed, and brain tissues were collected, followed by hematoxylin & eosin staining and Kluver Barrera staining for histological investigation.

Another series deals with meningeal carcinomatosis. The following applies: intrathecal MTX; cited from earlier work.
The mark [3] stands for this setting: 1 to 10 μg/body a day intrathecal, three times a week, 3 to 8 weeks.
The mark [4] stands for this setting: per patient, before→after, CSF obtained by anterial horn of lateral ventricle.
[5] abbreviates: per patient, 1 to 10 μg/body a day intrathecal, three times a week, 3 to 8 weeks.
Setting [6] is: high-dose group 100 μg/0.05 ml intrathecal.

Regarding `O=c1[nH]c(=O)n([C@H]2C[C@H](O)[C@@H](CO)O2)cc1F` [FUDR, 5-fluoro-deoxyuridine], the “efficacy, summary of 13 patients” value in series [1] (setting [3]) is “diminutions of tumor marker, CSF cells and protein in CSF”. In addition, the “side effects, summary of 13 patients” value in series [1] (setting [3]) was “none of side effects such as toxicity to the digestive tracts, neurotoxicity, myelosuppression, and dysfunction of the liver and kidney”. For the same compound, the “Cell numbers Ventricular CSF” value in series [1] (setting [4]) turned out to be 50.fwdarw. In addition, the “Protein Ventricular CSF” value in series [1] (setting [4]) amounted to 147.fwdar. Moreover, in series [1] (per patient, before→after, CSF obtained by lumbar puncture), the “Cell numbers Spinal CSF” value is 144.fwdar. In series [1] (setting [5]), the “Response on CSF findings” value was “No and Response and No Response”. The Side effects entry in series [1] (setting [5]) is on record as “None”. The “survivors on day 14 postimplantation” value in the series on 203 glioma cells (100 μg/0.05 ml/head intrathecal) and with 203 glioma cells (250 μg/0.05 ml/head intrathecal) was 21 survivors among 22 animals each time. Further, the “neurotic manifestation during and after administration” value in series [2] (all dose groups 10-100 μg/0.05 ml intrathecal) is given as “none of the mice developed neurotic manifestation”. In series [2] (high-dose (100 μg/0.05 ml) group, two months after completion of administration), the “histological changes in cranial nerve tissues (hematoxylin & eosin, Kluver Barrera staining)” value is reported as “none of the mice exhibited abnormalities in the cranial nerve tissues”. Also, the “side effects such as diarrhea” value in series [2] (setting [6]) is on record as “free of side effects such as frequent diarrhea”. Further, the body weight variation result is “transient weight decrease” in series [2] (setting [6]), “no weight decrease whatever” in series [2] (medium-dose group 50 μg/0.05 ml intrathecal), “no weight decrease whatever” in series [2] (small-dose group 10 μg/0.05 ml intrathecal) and “no weight decrease whatever” in series [2] (small-dose group 25 μg/0.05 ml intrathecal).

For `CN(Cc1cnc2nc(N)nc(N)c2n1)c1ccc(C(=O)N[C@@H](CCC(=O)O)C(=O)O)cc1` [MTX, methotrexate], in the series with meningeal carcinomatosis, the “side effects limiting the dose” value is “Acute neurotoxicity and retarded necrotizing encephalopathy”.
